Measured values: the NIST ThermoML archive (doi:10.1021/je025620p)
Numbers after ± are expanded uncertainties.

Assay: isobaric coefficient of expansion
Conditions: 303.15 K, Liquid

C1CCCCC1 [cyclohexane]
isobaric coefficient of expansion (500 kPa): 0.00118 ± 2.9e-05 1/K | isobaric coefficient of expansion (1000 kPa): 0.00117 ± 2.9e-05 1/K | isobaric coefficient of expansion (2000 kPa): 0.00116 ± 2.8e-05 1/K | isobaric coefficient of expansion (3000 kPa): 0.00115 ± 2.8e-05 1/K | isobaric coefficient of expansion (4000 kPa): 0.00114 ± 2.8e-05 1/K | isobaric coefficient of expansion (5000 kPa): 0.00113 ± 2.8e-05 1/K | isobaric coefficient of expansion (6000 kPa): 0.00113 ± 2.8e-05 1/K | isobaric coefficient of expansion (7000 kPa): 0.00112 ± 2.7e-05 1/K | isobaric coefficient of expansion (8000 kPa): 0.00111 ± 2.7e-05 1/K | isobaric coefficient of expansion (9000 kPa): 0.0011 ± 2.7e-05 1/K | isobaric coefficient of expansion (10000 kPa): 0.00109 ± 2.7e-05 1/K | isobaric coefficient of expansion (11000 kPa): 0.00109 ± 2.7e-05 1/K | isobaric coefficient of expansion (12000 kPa): 0.00108 ± 2.6e-05 1/K | isobaric coefficient of expansion (13000 kPa): 0.00107 ± 2.6e-05 1/K | isobaric coefficient of expansion (14000 kPa): 0.00106 ± 2.6e-05 1/K | isobaric coefficient of expansion (15000 kPa): 0.00106 ± 2.6e-05 1/K | isobaric coefficient of expansion (16000 kPa): 0.00105 ± 2.6e-05 1/K | isobaric coefficient of expansion (17000 kPa): 0.00104 ± 2.6e-05 1/K | isobaric coefficient of expansion (18000 kPa): 0.00104 ± 2.5e-05 1/K | isobaric coefficient of expansion (19000 kPa): 0.00103 ± 2.5e-05 1/K | isobaric coefficient of expansion (20000 kPa): 0.00103 ± 2.5e-05 1/K | isobaric coefficient of expansion (21000 kPa): 0.00102 ± 2.5e-05 1/K | isobaric coefficient of expansion (22000 kPa): 0.00101 ± 2.5e-05 1/K | isobaric coefficient of expansion (23000 kPa): 0.00101 ± 2.5e-05 1/K | isobaric coefficient of expansion (24000 kPa): 0.001 ± 2.5e-05 1/K | isobaric coefficient of expansion (25000 kPa): 0.000994 ± 2.4e-05 1/K | isobaric coefficient of expansion (26000 kPa): 0.000988 ± 2.4e-05 1/K | isobaric coefficient of expansion (27000 kPa): 0.000985 ± 2.4e-05 1/K | isobaric coefficient of expansion (28000 kPa): 0.000977 ± 2.4e-05 1/K | isobaric coefficient of expansion (29000 kPa): 0.000975 ± 2.4e-05 1/K | isobaric coefficient of expansion (30000 kPa): 0.00097 ± 2.4e-05 1/K

CCCCCCC [heptane]
isobaric coefficient of expansion (500 kPa): 0.00125 ± 3.1e-05 1/K | isobaric coefficient of expansion (1000 kPa): 0.00124 ± 3e-05 1/K | isobaric coefficient of expansion (2000 kPa): 0.00123 ± 3e-05 1/K | isobaric coefficient of expansion (3000 kPa): 0.00122 ± 3e-05 1/K | isobaric coefficient of expansion (4000 kPa): 0.00121 ± 3e-05 1/K | isobaric coefficient of expansion (5000 kPa): 0.00119 ± 2.9e-05 1/K | isobaric coefficient of expansion (6000 kPa): 0.00118 ± 2.9e-05 1/K | isobaric coefficient of expansion (7000 kPa): 0.00117 ± 2.9e-05 1/K | isobaric coefficient of expansion (8000 kPa): 0.00116 ± 2.8e-05 1/K | isobaric coefficient of expansion (9000 kPa): 0.00115 ± 2.8e-05 1/K | isobaric coefficient of expansion (10000 kPa): 0.00114 ± 2.8e-05 1/K | isobaric coefficient of expansion (11000 kPa): 0.00113 ± 2.8e-05 1/K | isobaric coefficient of expansion (12000 kPa): 0.00112 ± 2.7e-05 1/K | isobaric coefficient of expansion (13000 kPa): 0.00111 ± 2.7e-05 1/K | isobaric coefficient of expansion (14000 kPa): 0.0011 ± 2.7e-05 1/K | isobaric coefficient of expansion (15000 kPa): 0.00109 ± 2.7e-05 1/K | isobaric coefficient of expansion (16000 kPa): 0.00108 ± 2.7e-05 1/K | isobaric coefficient of expansion (17000 kPa): 0.00108 ± 2.6e-05 1/K | isobaric coefficient of expansion (18000 kPa): 0.00107 ± 2.6e-05 1/K | isobaric coefficient of expansion (19000 kPa): 0.00106 ± 2.6e-05 1/K | isobaric coefficient of expansion (20000 kPa): 0.00105 ± 2.6e-05 1/K | isobaric coefficient of expansion (21000 kPa): 0.00104 ± 2.6e-05 1/K | isobaric coefficient of expansion (22000 kPa): 0.00104 ± 2.5e-05 1/K | isobaric coefficient of expansion (23000 kPa): 0.00103 ± 2.5e-05 1/K | isobaric coefficient of expansion (24000 kPa): 0.00102 ± 2.5e-05 1/K | isobaric coefficient of expansion (25000 kPa): 0.00101 ± 2.5e-05 1/K | isobaric coefficient of expansion (26000 kPa): 0.00101 ± 2.5e-05 1/K | isobaric coefficient of expansion (27000 kPa): 0.001 ± 2.5e-05 1/K | isobaric coefficient of expansion (28000 kPa): 0.000995 ± 2.4e-05 1/K | isobaric coefficient of expansion (29000 kPa): 0.000988 ± 2.4e-05 1/K | isobaric coefficient of expansion (30000 kPa): 0.000983 ± 2.4e-05 1/K

Cc1ccccc1 [toluene]
isobaric coefficient of expansion (500 kPa): 0.00104 ± 2.6e-05 1/K | isobaric coefficient of expansion (1000 kPa): 0.00104 ± 2.5e-05 1/K | isobaric coefficient of expansion (2000 kPa): 0.00103 ± 2.5e-05 1/K | isobaric coefficient of expansion (3000 kPa): 0.00103 ± 2.5e-05 1/K | isobaric coefficient of expansion (4000 kPa): 0.00102 ± 2.5e-05 1/K | isobaric coefficient of expansion (5000 kPa): 0.00101 ± 2.5e-05 1/K | isobaric coefficient of expansion (6000 kPa): 0.00101 ± 2.5e-05 1/K | isobaric coefficient of expansion (7000 kPa): 0.001 ± 2.5e-05 1/K | isobaric coefficient of expansion (8000 kPa): 0.000996 ± 2.4e-05 1/K | isobaric coefficient of expansion (9000 kPa): 0.00099 ± 2.4e-05 1/K | isobaric coefficient of expansion (10000 kPa): 0.000984 ± 2.4e-05 1/K | isobaric coefficient of expansion (11000 kPa): 0.000977 ± 2.4e-05 1/K | isobaric coefficient of expansion (12000 kPa): 0.000973 ± 2.4e-05 1/K | isobaric coefficient of expansion (13000 kPa): 0.000967 ± 2.4e-05 1/K | isobaric coefficient of expansion (14000 kPa): 0.000962 ± 2.4e-05 1/K | isobaric coefficient of expansion (15000 kPa): 0.000957 ± 2.3e-05 1/K | isobaric coefficient of expansion (16000 kPa): 0.000952 ± 2.3e-05 1/K | isobaric coefficient of expansion (17000 kPa): 0.000947 ± 2.3e-05 1/K | isobaric coefficient of expansion (18000 kPa): 0.000942 ± 2.3e-05 1/K | isobaric coefficient of expansion (19000 kPa): 0.000937 ± 2.3e-05 1/K | isobaric coefficient of expansion (20000 kPa): 0.000932 ± 2.3e-05 1/K | isobaric coefficient of expansion (21000 kPa): 0.000928 ± 2.3e-05 1/K | isobaric coefficient of expansion (22000 kPa): 0.000923 ± 2.3e-05 1/K | isobaric coefficient of expansion (23000 kPa): 0.000918 ± 2.2e-05 1/K | isobaric coefficient of expansion (24000 kPa): 0.000914 ± 2.2e-05 1/K | isobaric coefficient of expansion (25000 kPa): 0.000908 ± 2.2e-05 1/K | isobaric coefficient of expansion (26000 kPa): 0.000904 ± 2.2e-05 1/K | isobaric coefficient of expansion (27000 kPa): 0.000903 ± 2.2e-05 1/K | isobaric coefficient of expansion (28000 kPa): 0.000896 ± 2.2e-05 1/K | isobaric coefficient of expansion (29000 kPa): 0.000896 ± 2.2e-05 1/K | isobaric coefficient of expansion (30000 kPa): 0.000892 ± 2.2e-05 1/K

CCCCCC [hexane]
isobaric coefficient of expansion (500 kPa): 0.00135 ± 3.3e-05 1/K | isobaric coefficient of expansion (1000 kPa): 0.00135 ± 3.3e-05 1/K | isobaric coefficient of expansion (2000 kPa): 0.00133 ± 3.3e-05 1/K | isobaric coefficient of expansion (2700 kPa): 0.00132 ± 3.2e-05 1/K | isobaric coefficient of expansion (4000 kPa): 0.0013 ± 3.2e-05 1/K | isobaric coefficient of expansion (4900 kPa): 0.00129 ± 3.2e-05 1/K | isobaric coefficient of expansion (6000 kPa): 0.00126 ± 3.1e-05 1/K | isobaric coefficient of expansion (7000 kPa): 0.00125 ± 3.1e-05 1/K | isobaric coefficient of expansion (8000 kPa): 0.00124 ± 3e-05 1/K | isobaric coefficient of expansion (9000 kPa): 0.00122 ± 3e-05 1/K | isobaric coefficient of expansion (10000 kPa): 0.00121 ± 3e-05 1/K | isobaric coefficient of expansion (11000 kPa): 0.0012 ± 2.9e-05 1/K | isobaric coefficient of expansion (12000 kPa): 0.00119 ± 2.9e-05 1/K | isobaric coefficient of expansion (13000 kPa): 0.00118 ± 2.9e-05 1/K | isobaric coefficient of expansion (14100 kPa): 0.00116 ± 2.9e-05 1/K | isobaric coefficient of expansion (14500 kPa): 0.00116 ± 2.8e-05 1/K | isobaric coefficient of expansion (16000 kPa): 0.00115 ± 2.8e-05 1/K | isobaric coefficient of expansion (17000 kPa): 0.00114 ± 2.8e-05 1/K | isobaric coefficient of expansion (18000 kPa): 0.00113 ± 2.8e-05 1/K | isobaric coefficient of expansion (19000 kPa): 0.00112 ± 2.7e-05 1/K | isobaric coefficient of expansion (20000 kPa): 0.00111 ± 2.7e-05 1/K | isobaric coefficient of expansion (21000 kPa): 0.0011 ± 2.7e-05 1/K | isobaric coefficient of expansion (22000 kPa): 0.00109 ± 2.7e-05 1/K | isobaric coefficient of expansion (23000 kPa): 0.00108 ± 2.7e-05 1/K | isobaric coefficient of expansion (24500 kPa): 0.00107 ± 2.6e-05 1/K | isobaric coefficient of expansion (25000 kPa): 0.00107 ± 2.6e-05 1/K | isobaric coefficient of expansion (26000 kPa): 0.00106 ± 2.6e-05 1/K | isobaric coefficient of expansion (27000 kPa): 0.00105 ± 2.6e-05 1/K | isobaric coefficient of expansion (28000 kPa): 0.00104 ± 2.6e-05 1/K | isobaric coefficient of expansion (29000 kPa): 0.00104 ± 2.5e-05 1/K | isobaric coefficient of expansion (30000 kPa): 0.00103 ± 2.5e-05 1/K
